Drawing on patent publication US20230067593A1, “NANOFORMULATIONS OF METHYL {4,6-DIAMINO-2-[5-FLUORO-1-(2-FLUOROBENZYL)-1H-PYRAZOLO[3,4-B]PYRIDIN-3 -YL]PYRIMIDIN-5-YL} CARBAMATE” (ADVERIO PHARMA GMBH, priority 2020, published 2023), this text covers d50 after milling for one compound.

Bounds are passed on as bounds.

The nature of the data set: Screening experiments of nanosuspensions with different stabilizers (wet bead milling, planetary mill). Type of data set: physicochemical. To be noted: wet bead milling process according to Examples 1-3. On the procedure:
Most of the screening experiments of Example 1 were done in a planetary ball mill (PBM) of type Pulverisette 5. For sample preparation, the micronized compound of the formula (I) was predispersed in aqueous polymer surfactant solution and transferred into the grinding chamber (PET 23ml) which was filled with milling beads. The water contained in the solution was used as dispersing agent. As grinding media (0.4 - 0.6 mm) the Silibeads® zirconium oxide (yttrium stabilized) with a bulk density of 3.9 kg/l from Sigmund Lindner (Germany) were used. The milling beads fill level was 60% of the grinding chamber volume. Care was taken not to leave any air inclusions in the grinding chamber, as this would have a negative effect on the grinding process. The grinding time was 90 minutes at 400 rotations per minute. Four grinding chambers could be fed into the PBM per grinding operation. Thus, after separation of the grinding media, about 40 - 45 g suspension per grinding process could be produced.
The compound of formula (I) in crystalline form of modification I was produced according to example 13, method E of WO 2013/076168. Before nanomilling, the compound of formula (I) in crystalline form of modification I was micronized. For the screening experiments many different formulations were tested. For these experiments the duration of milling was 60 min. […]

As to `COC(=O)Nc1c(N)nc(-c2nn(Cc3ccccc3F)c3ncc(F)cc23)nc1N` [Vericiguat, methyl {4,6-diamino-2-[5-fluoro-1-(2-fluorobenzyl)-1H-pyrazolo[3,4-b]pyridin-3-yl]pyrimidin-5-yl}carbamate], the d50 after milling is reported as less than 200 nm.
